ChEMBL document CHEMBL3885861, “Open TG-GATES”

Species: Rattus norvegicus
Assay: Open TG-GATES - Regimen: Daily Repeat
Format: toxicity, organism-based, Sprague-Dawley
Parameters: regimen Daily Repeat, gender Male, age 6 weeks
Conditions: in vivo, po, 50 mg/kg, route gavage, dose level Middle; for APTT / Bas / Eos / Fbg / Hb / Ht / Lym / MCH / MCHC / MCV / Mono / Neu / PT / Plat / RBC / Ret / WBC: tissue Blood; for KIDNEY_L / KIDNEY_R / KIDNEY_TOTAL: tissue Kidney; for LIVER: tissue Liver; for A/G / ALP / ALT / AST / BUN / CRE / Ca / Cl / DBIL / GLC / IP / K / LDH / Na / PL / RALB / TBIL / TC / TG / TP / gamma-GTP: tissue Plasma

Question: What does the source list for CC(C)C(=O)Nc1ccc([N+](=O)[O-])c(C(F)(F)F)c1 [FLUTAMIDE]?
Answer: TERMINAL_BW (72 h, time 3 day): 215.7 g; APTT (72 h, time 3 day): 18.3 s; Bas (72 h, time 3 day): 0%; Eos (72 h, time 3 day): 1.2%; Fbg (72 h, time 3 day): 217 mg/dL; Hb (72 h, time 3 day): 14.3 g/dL; Ht (72 h, time 3 day): 43.4%; Lym (72 h, time 3 day): 78%; MCH (72 h, time 3 day): 20.9 pg; MCHC (72 h, time 3 day): 32.9%; MCV (72 h, time 3 day): 63.5 fL; Mono (72 h, time 3 day): 2.6%; Neu (72 h, time 3 day): 17.4%; PT (72 h, time 3 day): 12.3 s; Plat (72 h, time 3 day): 115.2 x10_4/uL; RBC (72 h, time 3 day): 685 x10_4/ul; Ret (72 h, time 3 day): 4.1%; WBC (72 h, time 3 day): 77.6 x10_2/uL; KIDNEY_L (72 h, time 3 day): 0.9 g; KIDNEY_R (72 h, time 3 day): 1 g; KIDNEY_TOTAL (72 h, time 3 day): 1.9 g; LIVER (72 h, time 3 day): 11.1 g; A/G (72 h, time 3 day): 1.7; ALP (72 h, time 3 day): 1001 IU/L; ALT (72 h, time 3 day): 38 IU/L; AST (72 h, time 3 day): 66.2 IU/L; BUN (72 h, time 3 day): 14.6 mg/dL; CRE (72 h, time 3 day): 0.4 mg/dL; Ca (72 h, time 3 day): 10.7 mg/dL; Cl (72 h, time 3 day): 105 meq/L; DBIL (72 h, time 3 day): 0.098 mg/dL; GLC (72 h, time 3 day): 210.8 mg/dL; IP (72 h, time 3 day): 6.9 mg/dL; K (72 h, time 3 day): 3.6 meq/L; LDH (72 h, time 3 day): 175.8 IU/L; Na (72 h, time 3 day): 142 meq/L; PL (72 h, time 3 day): 162.4 mg/dL; RALB (72 h, time 3 day): 3.6 g/dL; TBIL (72 h, time 3 day): 0.2 mg/dL; TC (72 h, time 3 day): 97.8 mg/dL; TG (72 h, time 3 day): 66.6 mg/dL; TP (72 h, time 3 day): 5.7 g/dL; gamma-GTP (72 h, time 3 day): 1 IU/L; TERMINAL_BW ([…], time 7 day): 244.8 g; TERMINAL_BW ([…], time 14 day): 289.8 g; TERMINAL_BW ([…], time 28 day): 352.3 g; APTT ([…], time 7 day): 16.9 s; Bas ([…], time 7 day): 0%; Eos ([…], time 7 day): 1%; Fbg ([…], time 7 day): 221.4 mg/dL; Hb ([…], time 7 day): 13.6 g/dL; Ht ([…], time 7 day): 40.5%; Lym ([…], time 7 day): 82.2%; MCH ([…], time 7 day): 20.6 pg; MCHC ([…], time 7 day): 33.7%; MCV ([…], time 7 day): 61.2 fL; Mono ([…], time 7 day): 2.6%; Neu ([…], time 7 day): 13.8%; PT ([…], time 7 day): 12.7 s; Plat ([…], time 7 day): 126 x10_4/uL; RBC ([…], time 7 day): 661.8 x10_4/ul; Ret ([…], time 7 day): 4.8%; WBC ([…], time 7 day): 115.5 x10_2/uL; APTT ([…], time 14 day): 20.1 s; Bas ([…], time 14 day): 0%; Eos ([…], time 14 day): 1%; Fbg ([…], time 14 day): 216.8 mg/dL; Hb ([…], time 14 day): 14.2 g/dL; Ht ([…], time 14 day): 41.8%; Lym ([…], time 14 day): 82%; MCH ([…], time 14 day): 20.7 pg; MCHC ([…], time 14 day): 34.1%; MCV ([…], time 14 day): 60.9 fL; Mono ([…], time 14 day): 1.8%; Neu ([…], time 14 day): 14.4%; PT ([…], time 14 day): 12.6 s; Plat ([…], time 14 day): 116.7 x10_4/uL; RBC ([…], time 14 day): 687.8 x10_4/ul; Ret ([…], time 14 day): 4%; WBC ([…], time 14 day): 138.1 x10_2/uL; APTT ([…], time 28 day): 19.2 s; Bas ([…], time 28 day): 0%; Eos ([…], time 28 day): 1%; Fbg ([…], time 28 day): 225 mg/dL; Hb ([…], time 28 day): 15 g/dL; Ht ([…], time 28 day): 42.3%; Lym ([…], time 28 day): 83.8%; MCH ([…], time 28 day): 20.2 pg; MCHC ([…], time 28 day): 35.6%; MCV ([…], time 28 day): 56.9 fL; Mono ([…], time 28 day): 2%; Neu ([…], time 28 day): 12.2%; PT ([…], time 28 day): 12.5 s; Plat ([…], time 28 day): 107.9 x10_4/uL; RBC ([…], time 28 day): 743.2 x10_4/ul; Ret ([…], time 28 day): 2.1%; WBC ([…], time 28 day): 114.3 x10_2/uL; KIDNEY_L ([…], time 7 day): 1 g; KIDNEY_R ([…], time 7 day): 1 g; KIDNEY_TOTAL ([…], time 7 day): 2 g; KIDNEY_L ([…], time 14 day): 1.2 g; KIDNEY_R ([…], time 14 day): 1.1 g; KIDNEY_TOTAL ([…], time 14 day): 2.3 g; KIDNEY_L ([…], time 28 day): 1.3 g; KIDNEY_R ([…], time 28 day): 1.3 g; KIDNEY_TOTAL ([…], time 28 day): 2.5 g; LIVER ([…], time 7 day): 12.8 g; LIVER ([…], time 14 day): 14.8 g; LIVER ([…], time 28 day): 16.8 g; A/G ([…], time 7 day): 1.7; ALP ([…], time 7 day): 753 IU/L; ALT ([…], time 7 day): 36.4 IU/L; AST ([…], time 7 day): 54.4 IU/L; BUN ([…], time 7 day): 15.6 mg/dL; CRE ([…], time 7 day): 0.4 mg/dL; Ca ([…], time 7 day): 10.9 mg/dL; Cl ([…], time 7 day): 103.8 meq/L; DBIL ([…], time 7 day): 0.09 mg/dL; GLC ([…], time 7 day): 215.2 mg/dL; IP ([…], time 7 day): 6.8 mg/dL; K ([…], time 7 day): 3.7 meq/L; LDH ([…], time 7 day): 169.2 IU/L; Na ([…], time 7 day): 140.6 meq/L; PL ([…], time 7 day): 156.2 mg/dL; RALB ([…], time 7 day): 3.7 g/dL; TBIL ([…], time 7 day): 0.1 mg/dL; TC ([…], time 7 day): 88.4 mg/dL; TG ([…], time 7 day): 67 mg/dL; TP ([…], time 7 day): 6 g/dL; gamma-GTP ([…], time 7 day): 0.2 IU/L; A/G ([…], time 14 day): 1.5; ALP ([…], time 14 day): 685.8 IU/L; ALT ([…], time 14 day): 33.2 IU/L; AST ([…], time 14 day): 59.2 IU/L; BUN ([…], time 14 day): 14.4 mg/dL; CRE ([…], time 14 day): 0.5 mg/dL; Ca ([…], time 14 day): 10.6 mg/dL; Cl ([…], time 14 day): 103.8 meq/L; DBIL ([…], time 14 day): 0.086 mg/dL; GLC ([…], time 14 day): 192 mg/dL; IP ([…], time 14 day): 6.2 mg/dL; K ([…], time 14 day): 3.8 meq/L; LDH ([…], time 14 day): 148 IU/L; Na ([…], time 14 day): 141.8 meq/L; PL ([…], time 14 day): 132 mg/dL; RALB ([…], time 14 day): 3.5 g/dL; TBIL ([…], time 14 day): 0.1 mg/dL; TC ([…], time 14 day): 70.6 mg/dL; TG ([…], time 14 day): 58.6 mg/dL; TP ([…], time 14 day): 5.9 g/dL; gamma-GTP ([…], time 14 day): 1 IU/L; A/G ([…], time 28 day): 1.5; ALP ([…], time 28 day): 449.8 IU/L; ALT ([…], time 28 day): 30.6 IU/L; AST ([…], time 28 day): 48.6 IU/L; BUN ([…], time 28 day): 17.4 mg/dL; CRE ([…], time 28 day): 0.5 mg/dL; Ca ([…], time 28 day): 10.5 mg/dL; Cl ([…], time 28 day): 103.8 meq/L; DBIL ([…], time 28 day): 0.078 mg/dL; GLC ([…], time 28 day): 227.2 mg/dL; IP ([…], time 28 day): 6.9 mg/dL; K ([…], time 28 day): 3.5 meq/L; LDH ([…], time 28 day): 124.2 IU/L; Na ([…], time 28 day): 141.8 meq/L; PL ([…], time 28 day): 167.4 mg/dL; RALB ([…], time 28 day): 3.8 g/dL; TBIL ([…], time 28 day): 0.1 mg/dL; TC ([…], time 28 day): 93.2 mg/dL; TG ([…], time 28 day): 54.2 mg/dL; TP ([…], time 28 day): 6.3 g/dL; gamma-GTP ([…], time 28 day): 1.6 IU/L
